Like-named read-outs stand apart in the source and are kept apart here.
What was measured:
[1] = tested on: K-Ras G12C (NCI-H358 cells); assay: Potency assay: pERK in NCI-H358 cells; format: cell-based, human; settings: read-out: pERK EC50 (H358 KRAS G12C)
Summary of the method: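 Cells plated the day before were exposed for 4 h at 37° C, 5% CO2 to a 10-point, 3-fold DMSO dilution series (10 mM top stock), in duplicate. Phospho-ERK was read by AlphaLISA SureFire Ultra or by In-Cell Western with DRAQ5 DNA stain, and IC50 came from a 4-parameter sigmoidal fit.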

NRAS G12C = NRAS G12C (Homo sapiens (Human), UniProt P01111+P62937, G12C); assay: Ras-Raf disruption/FRET/MOA assay (BRAF RBD, Cyclophilin A); format: biochemical; settings: read-out: NRAS G12C FRET data IC50
NRAS G12C, sequence (P01111 whole entry G12C): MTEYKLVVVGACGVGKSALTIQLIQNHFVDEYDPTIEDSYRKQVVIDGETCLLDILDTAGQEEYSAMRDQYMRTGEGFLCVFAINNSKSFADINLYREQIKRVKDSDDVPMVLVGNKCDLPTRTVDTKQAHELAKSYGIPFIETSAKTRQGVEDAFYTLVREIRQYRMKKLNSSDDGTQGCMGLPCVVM
NRAS G12C, sequence (P62937 whole entry): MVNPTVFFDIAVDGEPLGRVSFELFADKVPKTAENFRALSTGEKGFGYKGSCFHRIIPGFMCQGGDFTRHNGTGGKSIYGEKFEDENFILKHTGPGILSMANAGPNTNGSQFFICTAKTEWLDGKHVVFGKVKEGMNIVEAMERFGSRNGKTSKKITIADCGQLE
Summary of the method: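 TR-FRET readout: anti-His Eu-W1024 (10 nM) and anti-GST allophycocyanin (50 nM) added after 3 h, 25° C compound incubation, then 1.5 h more. Decrease in FRET ratio versus DMSO wells marks Ras:RAF disruption; IC50 reported.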

KRAS G12S = KRAS G12S (Homo sapiens (Human), UniProt P01116+P62937, G12S); assay: as above; format: biochemical; settings: read-out: KRAS G12S FRET IC50
KRAS G12S, sequence (P01116 other isoform, or with tags, fused parts or gaps G12S): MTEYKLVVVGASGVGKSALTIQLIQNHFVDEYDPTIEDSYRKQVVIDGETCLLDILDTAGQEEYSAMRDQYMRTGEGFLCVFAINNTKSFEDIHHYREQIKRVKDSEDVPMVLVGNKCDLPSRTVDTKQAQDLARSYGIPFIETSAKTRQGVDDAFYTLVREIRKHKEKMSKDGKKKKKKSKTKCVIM
KRAS G12S, sequence (P62937 whole entry): as the sequence (P62937 whole entry) above
Summary of the method: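 Ras-GMPPNP (12.5 nM), BRAF RBD (50 nM) and 25 μM Cyclophilin A were incubated with compound for 3 h at 25° C, then detected 1.5 h with anti-His Eu and anti-GST APC; IC50 values follow from the reduced TR-FRET ratio.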

NCI-H358 (K-Ras G12C) = assay: CellTiter-Glo cell viability assay, NCI-H358; format: cell-based, human
Summary of the method: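 NCI-H358 (K-Ras G12C) cells treated with compound dispensed directly into plates. CellTiter-Glo luminescence read on day 5 after ~30 min equilibration to room temperature. Signal normalised to DMSO average ×100, then fitted with a four-parameter logistic model.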

[2] = tested on: NCI-H358 cells (K-Ras G12C); assay: CellTiter-Glo cell viability, NCI-H358; format: cell-based, human; settings: K-Ras G12C, 5-day treatment; read-out: H358 Cell Viability IC50
Summary of the method: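 Compounds dispensed directly onto seeded cells; on day 5 plates equilibrated ~30 min to room temperature and luminescence read. Signal normalized to DMSO average (%) and fitted by four-parameter logistic.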

[3] = Homo sapiens, NCI-H358 cells, 4 hours
[4] = Homo sapiens, NCI-H358, 120 h, 5-day treatment, read-out: H358 Cell Viability assay data (K-Ras G12C, IC50)
[5] = 5-day treatment, read-out: H358 Cell Viability assay data (K-Ras G12C, IC50)

Structure (SMILES)	EC50 [1, 3] [nM]	IC50 (NRAS G12C) [nM]	IC50 (KRAS G12S) [nM]	IC50 (NCI-H358 (K-Ras G12C); [4]) [µM]	IC50 (NCI-H358 (K-Ras G12C); [5]) [µM]	EC50 ([1]; Homo sapiens, NCI-H358, 4 h) [nM]	IC50 (NCI-H358 (K-Ras G12C); Homo sapiens, NCI-H358, 120 h, read-out: H358 Cell Viability assay data (K-Ras G12C, IC50, uM), 5-day treatment) [µM]	IC50 [2] [nM]	EC50 ([1]; NCI-H358 cells, 4 hours) [nM]
CCn1c(-c2cccnc2[C@H](C)OC)c2c3cc(ccc31)-c1cccc(c1)C[C@H](NC(=O)[C@H](C(C)C)N(C)C(=O)[C@H]1CCNC1)C(=O)N1CCC[C@H](N1)C(=O)OCC(C)(C)C2 [Compound A119]	< 5000	1000 to 10000	100 to 1000						
CCn1c(-c2cccnc2[C@H](C)OC)c2c3cc(ccc31)-c1cc(O)cc(c1)C[C@H](NC(=O)C(=C(C)C)N(C)C(C)=O)C(=O)N1CCC[C@H](N1)C(=O)OCC(C)(C)C2 [Compound A142]	< 5000	1000 to 10000	1000 to 10000	0.1 to 1					
CCn1c(-c2cccnc2[C@H](C)OC)c2c3cc(ccc31)-c1cc(cc3nc[nH]c13)C[C@H](NC(=O)[C@H](C(C)C)N(C)C(C)=O)C(=O)N1CCC[C@H](N1)C(=O)OCC(C)(C)C2 [Compound A153]	< 5000	> 10000	> 10000	0.1 to 1					
CCn1c(-c2cccnc2[C@H](C)OC)c2c3cc(ccc31)-c1cc(cc(S(C)(=O)=O)c1)C[C@H](NC(=O)[C@H](C(C)C)N(C)C(C)=O)C(=O)N1CCC[C@H](N1)C(=O)OCC(C)(C)C2 [Compound A154]	< 5000	> 10000	> 10000	0.01 to 0.1					
CCn1c(-c2cccnc2[C@H](C)OC)c2c3cc(ccc31)-c1cc(O)cc(c1)C[C@H](NC(=O)[C@H](C(C)C)N(C)C(=O)[C@H]1CCN(C3CC3)C1)C(=O)N1CCC[C@H](N1)C(=O)OCC(C)(C)C2 [Compound A175]	< 5000	1000 to 10000	1000 to 10000	< 0.01					
CCn1c(-c2cccnc2[C@H](C)OC)c2c3cc(ccc31)-c1cc(O)cc(c1)C[C@H](NC(=O)C1CCC3C1C3(F)F)C(=O)N1CCC[C@H](N1)C(=O)OCC(C)(C)C2 (some centres unmarked) [Compound A181]	< 5000	1000 to 10000	1000 to 10000	< 0.01	0.01 to 0.1				
CCn1c(-c2cccnc2[C@H](C)OC)c2c3cc(ccc31)-c1cc(O)cc(c1)C[C@H](NC(=O)[C@@H]1[C@H]3C[C@H]3CN1C(C)=O)C(=O)N1CCC[C@H](N1)C(=O)OCC(C)(C)C2 [Compound A207]	< 5000	1000 to 10000	1000 to 10000	0.01 to 0.1					
CCn1c(-c2cccnc2[C@H](C)OC)c2c3cc(ccc31)-c1csc(n1)C[C@H](NC(=O)[C@H](C(C)C)N(C)C(=O)[C@H]1CCN(S(C)(=O)=O)C1)C(=O)N1CCC[C@H](N1)C(=O)OCC(C)(C)C2 [Compound A237]		1000 to 10000	1000 to 10000			< 5000	< 0.01		
CCn1c(-c2cccnc2[C@H](C)OC)c2c3cc(ccc31)-c1cccc(c1)C[C@H](NC(=O)[C@H](C(C)C)N(C)C(=O)C1COC1)C(=O)N1CCC[C@H](N1)C(=O)OCC(C)(C)C2 [Compound A246]	< 5000	1000 to 10000	1000 to 10000	< 0.01					
CCn1c(-c2cccnc2[C@H](C)OC)c2c3cc(ccc31)-c1cc(O)cc(c1)C[C@H](NC(=O)[C@H](C(C)C)N(C)C(=O)C1CC(=O)N(C3CC3)C1)C(=O)N1CCC[C@H](N1)C(=O)OCC(C)(C)C2 (some centres unmarked) [Compound A252]	< 5000	10 to 100	10 to 100	0.01 to 0.1					
CCn1c(-c2cnccc2COC)c2c3cc(ccc31)-c1cc(O)cc(c1)C[C@H](NC(=O)[C@H](C(C)C)N(C)C(=O)N1CCNCC1)C(=O)N1CCC[C@H](N1)C(=O)OCC(C)(C)C2 [Compound A255]	< 5000	100 to 1000	100 to 1000	< 0.01					
CCn1c(-c2cccnc2[C@H](C)OC)c2c3cc(ccc31)-c1csc(n1)C[C@H](NC(=O)[C@H](C(C)C)N(C)C(=O)N1CCN(C(C)=O)CC1)C(=O)N1CCC[C@H](N1)C(=O)OCC(C)(C)C2 [Compound A291]	< 5000	10 to 100	10 to 100	< 0.01					
CCn1c(-c2cccnc2[C@H](C)OC)c2c3cc(ccc31)-c1csc(n1)C[C@H](NC(=O)[C@H](C(C)C)N(C)C(=O)N1C[C@H](C)N(C)C[C@H]1C)C(=O)N1CCC[C@H](N1)C(=O)OCC(C)(C)C2 [Compound A300]	< 5000	1000 to 10000	1000 to 10000						
CCn1c(-c2cccnc2[C@H](C)OC)c2c3cc(ccc31)-c1cc(O)cc(c1)C[C@H](NC(=O)[C@@H]1[C@@H](C)CCCN1C(C)=O)C(=O)N1CCC[C@H](N1)C(=O)OCC(C)(C)C2 [Compound A324]	< 5000	100 to 1000	100 to 1000	< 0.01					
CCn1c(-c2cccnc2[C@H](C)OC)c2c3cc(ccc31)-c1csc(n1)C[C@H](NC(=O)[C@H](C(C)C)N(C)C(=O)N1CC(N3CCOCC3)C1)C(=O)N1CCC[C@H](N1)C(=O)OCC(C)(C)C2 [Compound A338]	< 5000	10 to 100	100 to 1000	0.01 to 0.1					
CCn1c(-c2cc(N3CCN(C)CC3)cnc2[C@H](C)OC)c2c3cc(ccc31)-c1nc(co1)C[C@H](NC(=O)[C@H]1[C@H](C)[C@@H]1C)C(=O)N1CCC[C@H](N1)C(=O)OCC(C)(C)C2 [Compound A391, (1r,2R,3S)—N-((6^3S,4S,Z)-1^1-ethyl-1^2-(2-((S)-1-methoxyethyl)-5-(4-methylpiperazin-1-yl)pyridin-3-yl)-10,10-dimethyl-5,7-dioxo-6^1,6^2,6^3,6^4,6^5,6^6-hexahydro-1^1H-8-oxa-2 (2,4)-oxazola-1 (5,3)-indola-6 (1,3)-pyridazinacycloundecaphane-4-yl)-2,3-dimethylcyclopropane-1-carboxamide]			10 to 100		< 0.01			10 to 100	< 5000
CCn1c(-c2cccnc2[C@H](C)OC)c2c3cc(ccc31)-c1cc(O)cc(c1)C[C@H](NC(=O)[C@H](C(C)C)N(C)C(=O)C1CN3CCCN1CC3)C(=O)N1CCC[C@H](N1)C(=O)OCC(C)(C)C2 (some centres unmarked) [Compound A404]	< 5000	100 to 1000	100 to 1000	0.01 to 0.1					
CCn1c(-c2cccnc2[C@H](C)OC)c2c3cc(ccc31)-c1cc(O)cc(c1)C[C@H](NC(=O)[C@H](C(C)C)N(C)C(=O)[C@H]1OCC[C@H]1c1ccccc1)C(=O)N1CCC[C@H](N1)C(=O)OCC(C)(C)C2 [Compound A425]	< 5000	1000 to 10000	1000 to 10000	< 0.01					
CCn1c(-c2cccnc2[C@H](C)OC)c2c3cc(ccc31)-c1cc(O)cc(c1)C[C@H](NC(=O)[C@H](C(C)C)N(C)C(=O)C1CNCCNC1)C(=O)N1CCC[C@H](N1)C(=O)OCC(C)(C)C2 [Compound A432]	< 5000	10 to 100	100 to 1000	0.01 to 0.1					
CCn1c(-c2cccnc2[C@H](C)OC)c2c3cc(ccc31)-c1csc(n1)C[C@H](NC(=O)[C@H](C(C)C)N(C)C(=O)N1CC[C@H]1CN)C(=O)N1CCC[C@H](N1)C(=O)OCC(C)(C)C2 [Compound A463]	< 5000	100 to 1000	100 to 1000	< 0.01					
CCn1c(-c2cc(N3CCN(C)CC3)cnc2[C@H](C)OC)c2c3cc(ccc31)-c1csc(n1)C[C@H](NC(=O)[C@H](C(C)C)N(C)C(=O)N1CC(OC)C1)C(=O)N1CCC[C@H](N1)C(=O)OCC(C)(C)C2 [Compound A466]	< 5000	10 to 100	100 to 1000	< 0.01					
CCn1c(-c2cccnc2[C@H](C)OC)c2c3cc(ccc31)-c1csc(n1)C[C@H](NC(=O)[C@H](C(C)C)N(C)C(=O)N1CC[C@]3(CCNC3=O)C1)C(=O)N1CCC[C@H](N1)C(=O)OCC(C)(C)C2 [Compound A479]	< 5000	100 to 1000	1000 to 10000	< 0.01					
CCn1c(-c2cccnc2[C@H](C)OC)c2c3cc(ccc31)-c1csc(n1)C[C@H](NC(=O)[C@H](C(C)C)N(C)C(=O)N1CCC13CCS(=O)(=O)CC3)C(=O)N1CCC[C@H](N1)C(=O)OCC(C)(C)C2 [Compound A530]	< 5000	100 to 1000	100 to 1000	0.01 to 0.1					
CCn1c(-c2cccnc2[C@H](C)OC)c2c3cc(ccc31)-c1csc(n1)C[C@H](NC(=O)[C@H](C(C)C)N(C)C(=O)N1CC[C@@H]1CN)C(=O)N1CCC[C@H](N1)C(=O)OCC(C)(C)C2 [Compound A558]	< 5000	10 to 100	10 to 100	0.01 to 0.1					
